Results from patent US11957696B2 (Propella Therapeutics, Inc., priority 2021, dated 2024).

How the values were obtained:
LH = LH analysis (serum) in 13-week study; assay type: in vivo, cynomolgus monkeys; set-up: LH: unit not given here
Method: Sample Collection for LH Analysis (Serum): Blood samples (approximately 2.5 mL) were collected from all animals via the femoral vein for determination of the serum concentrations of LH. The animals were fasted prior to blood collection except one deviation.

CYP17 hydroxylase/lyase = experiment: Steroid hormone analysis (serum) in 13-week study; assay type: in vivo, cynomolgus monkeys; conditions: for Serum 17OH-Progesterone CFB (vs Day −1) / Serum 17OH-Progesterone Mean / Serum Aldosterone CFB (vs Day −1) / Serum Aldosterone Mean / Serum Androstenedione CFB (vs Day −1) / Serum Androstenedione Mean / Serum Corticosterone CFB (vs Day −1) / Serum Corticosterone Mean / Serum Cortisol CFB (vs Day −1) / Serum Cortisol Mean / Serum Dehydroepiandrosterone CFB (vs Day −1) / Serum Dehydroepiandrosterone Mean / Serum Deoxycortisol CFB (vs Day −1) / Serum Deoxycortisol Mean / Serum Dihydrotestosterone CFB (vs Day −1) / Serum Dihydrotestosterone Mean / Serum Progesterone CFB (vs Day −1) / Serum Progesterone Mean / Serum Testosterone CFB (vs Day −1) / Serum Testosterone Mean: intact male monkeys
Method: Sample Collection for Steroid Hormone Analysis (Serum): Blood samples (approximately 2.5 mL) were collected from all animals via the femoral vein for the steroid hormone analysis. The animals were fasted prior to blood collection.

[1] = 20 mg/kg IM every two weeks, Day 15
[2] = 20 mg/kg IM every two weeks, Day 85
[3] = 60 mg/kg IM every two weeks, Day 15
[4] = 60 mg/kg IM every two weeks, Day 85
[5] = 200 mg/kg IM every two weeks, Day 15
[6] = 200 mg/kg IM every two weeks, Day 85
[7] = Day 85, 20 and 60 mg/kg dose groups

CCCCCCCCCC(=O)O[C@H]1CC[C@@]2(C)C(=CC[C@@H]3[C@@H]2CC[C@]2(C)C(c4cccnc4)=CC[C@@H]32)C1 [Abiraterone Decanoate, abiraterone decanoate]
LH (LH; 20 mg/kg, N 4, Day 8): 1.67
LH (LH; 20 mg/kg, N 4, Day 15): 1.67
LH (LH; 20 mg/kg, N 4, Day 78): 5.67
LH (LH; 20 mg/kg, N 4, Day 85): 3.12
LH (LH; 60 mg/kg, N 4, Day 8): 2.78
LH (LH; 60 mg/kg, N 4, Day 15): 2.73
LH (LH; 60 mg/kg, N 4, Day 78): 7.12
LH (LH; 60 mg/kg, N 4, Day 85): 7.07
LH (LH; 200 mg/kg, N 6, Day 8): 1.98
LH (LH; 200 mg/kg, N 6, Day 15): 2.33
LH (LH; 200 mg/kg, N 6, Day 78): 5.04
LH (LH; 200 mg/kg, N 6, Day 85): 5.27
LH concentrations (LH; following abiraterone decanoate administration): no clear effects
Serum 17OH-Progesterone CFB (vs Day −1) (CYP17 hydroxylase/lyase; [1]): 1060%
Serum 17OH-Progesterone Mean (CYP17 hydroxylase/lyase; [1]): 4289 pg/mL
Serum Aldosterone CFB (vs Day −1) (CYP17 hydroxylase/lyase; [1]): −68%
Serum Aldosterone Mean (CYP17 hydroxylase/lyase; [1]): 45 pg/mL
Serum Androstenedione CFB (vs Day −1) (CYP17 hydroxylase/lyase; [1]): −82%
Serum Androstenedione Mean (CYP17 hydroxylase/lyase; [1]): 39 pg/mL
Serum Corticosterone CFB (vs Day −1) (CYP17 hydroxylase/lyase; [1]): 3361%
Serum Corticosterone Mean (CYP17 hydroxylase/lyase; [1]): 110635 pg/mL
Serum Cortisol CFB (vs Day −1) (CYP17 hydroxylase/lyase; [1]): −76%
Serum Cortisol Mean (CYP17 hydroxylase/lyase; [1]): 34897 pg/mL
Serum Dehydroepiandrosterone CFB (vs Day −1) (CYP17 hydroxylase/lyase; [1]): −73%
Serum Dehydroepiandrosterone Mean (CYP17 hydroxylase/lyase; [1]): 1500 pg/mL
Serum Deoxycortisol CFB (vs Day −1) (CYP17 hydroxylase/lyase; [1]): −64%
Serum Deoxycortisol Mean (CYP17 hydroxylase/lyase; [1]): 241 pg/mL
Serum Dihydrotestosterone CFB (vs Day −1) (CYP17 hydroxylase/lyase; [1]): −87%
Serum Dihydrotestosterone Mean (CYP17 hydroxylase/lyase; [1]): 195 pg/mL
Serum Progesterone CFB (vs Day −1) (CYP17 hydroxylase/lyase; [1]): 51539%
Serum Progesterone Mean (CYP17 hydroxylase/lyase; [1]): 10328 pg/mL
Serum Testosterone CFB (vs Day −1) (CYP17 hydroxylase/lyase; [1]): −65%
Serum Testosterone Mean (CYP17 hydroxylase/lyase; [1]): 2148 pg/mL
Serum Testosterone CFB (vs Day −1) (CYP17 hydroxylase/lyase; 20 mg/kg IM every two weeks, Day 15, listed as AbiDec): −87%
Serum 17OH-Progesterone CFB (vs Day −1) (CYP17 hydroxylase/lyase; [2]): 1968%
Serum 17OH-Progesterone Mean (CYP17 hydroxylase/lyase; [2]): 7647 pg/mL
Serum Aldosterone CFB (vs Day −1) (CYP17 hydroxylase/lyase; [2]): 40%
Serum Aldosterone Mean (CYP17 hydroxylase/lyase; [2]): 199 pg/mL
Serum Androstenedione CFB (vs Day −1) (CYP17 hydroxylase/lyase; [2]): −53%
Serum Androstenedione Mean (CYP17 hydroxylase/lyase; [2]): 106 pg/mL
Serum Corticosterone CFB (vs Day −1) (CYP17 hydroxylase/lyase; [2]): 2837%
Serum Corticosterone Mean (CYP17 hydroxylase/lyase; [2]): 93869 pg/mL
Serum Cortisol CFB (vs Day −1) (CYP17 hydroxylase/lyase; [2]): −58%
Serum Cortisol Mean (CYP17 hydroxylase/lyase; [2]): 62490 pg/mL
Serum Dehydroepiandrosterone CFB (vs Day −1) (CYP17 hydroxylase/lyase; [2]): −76%
Serum Dehydroepiandrosterone Mean (CYP17 hydroxylase/lyase; [2]): 1372 pg/mL
Serum Deoxycortisol CFB (vs Day −1) (CYP17 hydroxylase/lyase; [2]): −47%
Serum Deoxycortisol Mean (CYP17 hydroxylase/lyase; [2]): 357 pg/mL
Serum Dihydrotestosterone CFB (vs Day −1) (CYP17 hydroxylase/lyase; [2]): −61%
Serum Dihydrotestosterone Mean (CYP17 hydroxylase/lyase; [2]): 578 pg/mL
Serum Progesterone CFB (vs Day −1) (CYP17 hydroxylase/lyase; [2]): 47710%
Serum Progesterone Mean (CYP17 hydroxylase/lyase; [2]): 9562 pg/mL
Serum Testosterone CFB (vs Day −1) (CYP17 hydroxylase/lyase; [2]): 3%
Serum Testosterone Mean (CYP17 hydroxylase/lyase; [2]): 6286 pg/mL
Serum 17OH-Progesterone CFB (vs Day −1) (CYP17 hydroxylase/lyase; [3]): 944%
Serum 17OH-Progesterone Mean (CYP17 hydroxylase/lyase; [3]): 1631 pg/mL
Serum Aldosterone CFB (vs Day −1) (CYP17 hydroxylase/lyase; [3]): −94%
Serum Aldosterone Mean (CYP17 hydroxylase/lyase; [3]): 14 pg/mL
Serum Androstenedione CFB (vs Day −1) (CYP17 hydroxylase/lyase; [3]): −94%
Serum Androstenedione Mean (CYP17 hydroxylase/lyase; [3]): 20 pg/mL
Serum Corticosterone CFB (vs Day −1) (CYP17 hydroxylase/lyase; [3]): 5279%
Serum Corticosterone Mean (CYP17 hydroxylase/lyase; [3]): 163079 pg/mL
Serum Cortisol CFB (vs Day −1) (CYP17 hydroxylase/lyase; [3]): −87%
Serum Cortisol Mean (CYP17 hydroxylase/lyase; [3]): 18271 pg/mL
Serum Dehydroepiandrosterone CFB (vs Day −1) (CYP17 hydroxylase/lyase; [3]): −75%
Serum Dehydroepiandrosterone Mean (CYP17 hydroxylase/lyase; [3]): 1271 pg/mL
Serum Deoxycortisol CFB (vs Day −1) (CYP17 hydroxylase/lyase; [3]): −72%
Serum Deoxycortisol Mean (CYP17 hydroxylase/lyase; [3]): 93 pg/mL
Serum Dihydrotestosterone CFB (vs Day −1) (CYP17 hydroxylase/lyase; [3]): −95%
Serum Dihydrotestosterone Mean (CYP17 hydroxylase/lyase; [3]): 64 pg/mL
Serum Progesterone CFB (vs Day −1) (CYP17 hydroxylase/lyase; [3]): 69193%
Serum Progesterone Mean (CYP17 hydroxylase/lyase; [3]): 13859 pg/mL
Serum Testosterone CFB (vs Day −1) (CYP17 hydroxylase/lyase; [3]): −94%
Serum Testosterone Mean (CYP17 hydroxylase/lyase; [3]): 335 pg/mL
Serum Testosterone CFB (vs Day −1) (CYP17 hydroxylase/lyase; 60 mg/kg IM every two weeks, Day 15, listed as AbiDec): −95%
Serum 17OH-Progesterone CFB (vs Day −1) (CYP17 hydroxylase/lyase; [4]): 5546%
Serum 17OH-Progesterone Mean (CYP17 hydroxylase/lyase; [4]): 8821 pg/mL
Serum Aldosterone CFB (vs Day −1) (CYP17 hydroxylase/lyase; [4]): −18%
Serum Aldosterone Mean (CYP17 hydroxylase/lyase; [4]): 194 pg/mL
Serum Androstenedione CFB (vs Day −1) (CYP17 hydroxylase/lyase; [4]): −77%
Serum Androstenedione Mean (CYP17 hydroxylase/lyase; [4]): 79 pg/mL
Serum Corticosterone CFB (vs Day −1) (CYP17 hydroxylase/lyase; [4]): 3878%
Serum Corticosterone Mean (CYP17 hydroxylase/lyase; [4]): 120598 pg/mL
Serum Cortisol CFB (vs Day −1) (CYP17 hydroxylase/lyase; [4]): −72%
Serum Cortisol Mean (CYP17 hydroxylase/lyase; [4]): 39689 pg/mL
Serum Dehydroepiandrosterone CFB (vs Day −1) (CYP17 hydroxylase/lyase; [4]): −76%
Serum Dehydroepiandrosterone Mean (CYP17 hydroxylase/lyase; [4]): 1200 pg/mL
Serum Deoxycortisol CFB (vs Day −1) (CYP17 hydroxylase/lyase; [4]): −7%
Serum Deoxycortisol Mean (CYP17 hydroxylase/lyase; [4]): 315 pg/mL
Serum Dihydrotestosterone CFB (vs Day −1) (CYP17 hydroxylase/lyase; [4]): −69%
Serum Dihydrotestosterone Mean (CYP17 hydroxylase/lyase; [4]): 361 pg/mL
Serum Progesterone CFB (vs Day −1) (CYP17 hydroxylase/lyase; [4]): 67947%
Serum Progesterone Mean (CYP17 hydroxylase/lyase; [4]): 13609 pg/mL
Serum Testosterone CFB (vs Day −1) (CYP17 hydroxylase/lyase; [4]): 1%
Serum Testosterone Mean (CYP17 hydroxylase/lyase; [4]): 5453 pg/mL
Serum 17OH-Progesterone CFB (vs Day −1) (CYP17 hydroxylase/lyase; [5]): 158%
Serum 17OH-Progesterone Mean (CYP17 hydroxylase/lyase; [5]): 474 pg/mL
Serum Aldosterone CFB (vs Day −1) (CYP17 hydroxylase/lyase; [5]): −91%
Serum Aldosterone Mean (CYP17 hydroxylase/lyase; [5]): 19 pg/mL
Serum Androstenedione CFB (vs Day −1) (CYP17 hydroxylase/lyase; [5]): −93%
Serum Androstenedione Mean (CYP17 hydroxylase/lyase; [5]): 20 pg/mL
Serum Corticosterone CFB (vs Day −1) (CYP17 hydroxylase/lyase; [5]): 4238%
Serum Corticosterone Mean (CYP17 hydroxylase/lyase; [5]): 138133 pg/mL
Serum Cortisol CFB (vs Day −1) (CYP17 hydroxylase/lyase; [5]): −93%
Serum Cortisol Mean (CYP17 hydroxylase/lyase; [5]): 7703 pg/mL
Serum Dehydroepiandrosterone CFB (vs Day −1) (CYP17 hydroxylase/lyase; [5]): −64%
Serum Dehydroepiandrosterone Mean (CYP17 hydroxylase/lyase; [5]): 1200 pg/mL
Serum Deoxycortisol CFB (vs Day −1) (CYP17 hydroxylase/lyase; [5]): −84%
Serum Deoxycortisol Mean (CYP17 hydroxylase/lyase; [5]): 44 pg/mL
Serum Dihydrotestosterone CFB (vs Day −1) (CYP17 hydroxylase/lyase; [5]): −96%
Serum Dihydrotestosterone Mean (CYP17 hydroxylase/lyase; [5]): 67 pg/mL
Serum Progesterone CFB (vs Day −1) (CYP17 hydroxylase/lyase; [5]): 59894%
Serum Progesterone Mean (CYP17 hydroxylase/lyase; [5]): 11999 pg/mL
Serum Testosterone CFB (vs Day −1) (CYP17 hydroxylase/lyase; [5]): −99%
Serum Testosterone Mean (CYP17 hydroxylase/lyase; [5]): 100 pg/mL
Serum Testosterone CFB (vs Day −1) (CYP17 hydroxylase/lyase; 200 mg/kg IM every two weeks, Day 15, listed as AbiDec): −96%
Serum 17OH-Progesterone CFB (vs Day −1) (CYP17 hydroxylase/lyase; [6]): 1696%
Serum 17OH-Progesterone Mean (CYP17 hydroxylase/lyase; [6]): 3296 pg/mL
Serum Aldosterone CFB (vs Day −1) (CYP17 hydroxylase/lyase; [6]): −82%
Serum Aldosterone Mean (CYP17 hydroxylase/lyase; [6]): 37 pg/mL
Serum Androstenedione CFB (vs Day −1) (CYP17 hydroxylase/lyase; [6]): −87%
Serum Androstenedione Mean (CYP17 hydroxylase/lyase; [6]): 39 pg/mL
Serum Corticosterone CFB (vs Day −1) (CYP17 hydroxylase/lyase; [6]): 3468%
Serum Corticosterone Mean (CYP17 hydroxylase/lyase; [6]): 113629 pg/mL
Serum Cortisol CFB (vs Day −1) (CYP17 hydroxylase/lyase; [6]): −83%
Serum Cortisol Mean (CYP17 hydroxylase/lyase; [6]): 19682 pg/mL
Serum Dehydroepiandrosterone CFB (vs Day −1) (CYP17 hydroxylase/lyase; [6]): −64%
Serum Dehydroepiandrosterone Mean (CYP17 hydroxylase/lyase; [6]): 1200 pg/mL
Serum Deoxycortisol CFB (vs Day −1) (CYP17 hydroxylase/lyase; [6]): −49%
Serum Deoxycortisol Mean (CYP17 hydroxylase/lyase; [6]): 141 pg/mL
Serum Dihydrotestosterone CFB (vs Day −1) (CYP17 hydroxylase/lyase; [6]): −90%
Serum Dihydrotestosterone Mean (CYP17 hydroxylase/lyase; [6]): 165 pg/mL
Serum Progesterone CFB (vs Day −1) (CYP17 hydroxylase/lyase; [6]): 75799%
Serum Progesterone Mean (CYP17 hydroxylase/lyase; [6]): 15180 pg/mL
Serum Testosterone CFB (vs Day −1) (CYP17 hydroxylase/lyase; [6]): −87%
Serum Testosterone Mean (CYP17 hydroxylase/lyase; [6]): 1246 pg/mL
Serum Testosterone CFB (vs Day −1) (CYP17 hydroxylase/lyase; 200 mg/kg IM every two weeks, Day 85, listed as AbiDec): −87%
serum testosterone levels reduced (CYP17 hydroxylase/lyase; 200 mg/kg/dose, for at least 85 days): more than 75%
Androstenedione serum concentration below Day −1 (CYP17 hydroxylase/lyase; [7]): 53-77%
dihydrotestosterone serum concentration below Day −1 (CYP17 hydroxylase/lyase; [7]): 61-69%
circulating androgen levels (CYP17 hydroxylase/lyase; gonadally intact male monkeys, appeared dose dependent, sustained for testosterone through Day 85 at 200 mg/kg/dose): potent reductions in circulating androgen levels
Serum testosterone concentrations following repeat administration (CYP17 hydroxylase/lyase; two lower dose groups (20, 60 mg/kg) by Day 85): returned to baseline
